From PubChem BioAssay AID1996
Values after ≈ are worked out from the molar mass of the structure shown.

Conditions: buffer; pH 7.4; 200.0 µM

| Compound | solubility kinetic |
| --- | --- |
| Cc1ccc(C(=O)NCCNS(=O)(=O)c2ccccc2)cn1 | > 47.9 µg/mL |
| CC(CNC(=O)c1ccc(N)cc1)NC(=O)c1ccc(N)cc1 (stereo not given) | 42.8 µg/mL (≈ 137 µM) |
| Cc1ccc(CN2C(=O)C(C)Oc3ccccc32)cc1 (stereo not given) | 4.7 µg/mL (≈ 17.6 µM) |
| CC(=O)c1sc(NCc2ccccc2)nc1C | 31.8 µg/mL (≈ 129 µM) |
| CC(CCc1ccccc1)NC(=O)CCC1CCCC1 (stereo not given) | 14.5 µg/mL (≈ 53 µM) |
| O=c1onc(-c2c(F)cccc2F)n1-c1ccccc1Cl | 1 µg/mL (≈ 3.24 µM) |
| Cn1nc(C(=O)NC2CCC(O)CC2)c2ccccc2c1=O (stereo not given) | > 45.2 µg/mL |
| N#CC1(NC(=O)COC(=O)C2=COCCO2)CCCCC1 | > 44.1 µg/mL |
| C(=C\c1ccco1)/c1ccc2ccccc2n1 | 10.7 µg/mL (≈ 48.4 µM) |
| Cc1cccc(-n2cnc(C(=O)N3CCN(C)CC3)c2)n1 | > 42.8 µg/mL |
| Cc1ccc(-c2ccnc3cc(C)nn23)cc1 | > 33.5 µg/mL |
| CCOC(=O)N1CCN(C(=O)C(C)c2ccc([N+](=O)[O-])cc2)CC1 (stereo not given) | > 50.3 µg/mL |
| CCOc1cc(Br)c(C(C)NC(=O)c2cccnc2)cc1OCC (stereo not given) | > 59 µg/mL |
| COC(=O)c1ccc(NC(=O)c2ccc3nccnc3c2)cc1 | 3.5 µg/mL (≈ 11.4 µM) |
| COc1cc(SC)ccc1C(=O)OCC(=O)NC(=O)NC(C)C | 10.9 µg/mL (≈ 32 µM) |
| O=C1Nc2ccccc2C1Cc1ccc(OC(F)(F)F)cc1 (stereo not given) | 37.3 µg/mL (≈ 121 µM) |
| Cc1onc(-c2ccccc2Cl)c1C(O)c1ccc(F)cc1 (stereo not given) | 46.6 µg/mL (≈ 147 µM) |
| O=C(COc1ccc(-n2ccnc2)cc1)Nc1cccc(Cl)c1 | 23.7 µg/mL (≈ 72.3 µM) |
| Cc1[nH]c2ccc(C(C)C)cc2c1CC(=O)O | > 34.7 µg/mL |
| COCCOn1c(SCCOC)nc2ccccc2c1=O | > 46.6 µg/mL |
| CCOC(=O)c1nc(-c2ccc(OC)c(OC)c2)no1 | 40.8 µg/mL (≈ 147 µM) |
| Cn1c(CNc2ccc(Br)cc2)nc2ccccc21 | 13 µg/mL (≈ 41.1 µM) |
| CC(C)(C)NC(=O)COC(=O)c1c2c(nc3ccccc13)CCC2 | 35.8 µg/mL (≈ 110 µM) |
| CCN1C(=O)C(=O)N(CC(=O)Nc2cccc(C(F)(F)F)c2)C1=O | > 51.5 µg/mL |

| Compound | solubility kinetic |
| --- | --- |
| N#C/C(=C\c1ccccc1)C(=O)Nc1ccccn1 | > 37.4 µg/mL |
| O=C(c1ccc([N+](=O)[O-])o1)N1CCc2ccccc21 | 2.6 µg/mL (≈ 10.1 µM) |
| CCOc1ccc(C(=O)N2CCN(c3ccccn3)CC2)cc1OCC | > 53.3 µg/mL |
| CN(C)c1nc(C(=O)O)nc(N2CCOCC2)n1 | 36.2 µg/mL (≈ 143 µM) |
| COC(=O)c1sccc1NC(=S)Nc1cc(C)ccc1OC | 36.3 µg/mL (≈ 108 µM) |
| O=C(Nc1ccc(OCc2ccccc2)cc1)Nc1cccnc1 | 1.2 µg/mL (≈ 3.76 µM) |
| Cc1ccc(CONC(=O)c2ccc([N+](=O)[O-])cc2)cc1 | 2.1 µg/mL (≈ 7.34 µM) |
| COc1ccccc1N1C(=O)S/C(=C\c2cccs2)C1=O | < 0.7 µg/mL |
| CCc1ccc(N2C(=O)C(Cl)=C(N3CCCCCC3)C2=O)cc1 | 1.7 µg/mL (≈ 5.11 µM) |
| CC(=O)c1cc(C#N)c(SCc2ccccn2)nc1C | 10.2 µg/mL (≈ 36 µM) |
| Cc1ccc(CN2C(=O)CNC2=S)cc1 | > 33 µg/mL |
| Cc1nc(-c2ccc(NC(=O)C(C)(C)C)cc2)c(-c2ccccc2)o1 | 0.8 µg/mL (≈ 2.39 µM) |
| CCOC(=O)C1CCCN(c2c(NCCC(C)C)c(=O)c2=O)C1 (stereo not given) | 44.5 µg/mL (≈ 138 µM) |
| Cc1sc(N2C(=O)C3C(C2=O)[C@H]2C=C[C@@H]3C2)c(C#N)c1C (stereo not given in full) | 25.6 µg/mL (≈ 85.8 µM) |
| O=C(COC(=O)CCC(=O)c1ccc(F)cc1)NC1CCCCC1 | > 50.3 µg/mL |
| CC(C)(C)NCC(O)CON=C1c2ccccc2-c2ccccc21 (stereo not given) | 44.1 µg/mL (≈ 136 µM) |
| Nc1cccc2cc(-c3ccccc3)oc12 | 2.4 µg/mL (≈ 11.5 µM) |
| O=C(NC(=S)Nc1ccccc1Cl)c1ccco1 | 2.5 µg/mL (≈ 8.91 µM) |
| Cc1ccc(NC(=O)COC(=O)CC2CC3CCC2C3)cc1S(=O)(=O)N1CCOCC1 (stereo not given) | 10.2 µg/mL (≈ 22.6 µM) |
| CN(C)CCCNc1nc(-c2ccccc2)nc2ccccc12.Cl | 44.1 µg/mL |
| Cc1cc(NC(=O)COC(=O)c2ccccc2O)no1 | 7.9 µg/mL (≈ 28.6 µM) |
| N#CCc1ccc(NC(=O)c2ccc(CN3CCc4ccccc4C3)cc2)cc1 | 1.6 µg/mL (≈ 4.19 µM) |
| Clc1ccc(-c2ccc(CN3CCCCC3)o2)cc1 | 30.1 µg/mL (≈ 109 µM) |
| COc1ccccc1/C=N/OC(=O)c1ccc(C)cc1 | < 0.6 µg/mL |

| Compound | solubility kinetic |
| --- | --- |
| O=C(NCc1ccccc1Cl)c1cnccc1C(F)(F)F | > 47.2 µg/mL |
| N#Cc1ccc(Oc2ncccn2)cc1 | > 29.6 µg/mL |
| O=C1CCN(Cc2nc(-c3ccc(Cl)cc3)no2)CCN1 | > 46 µg/mL |
| COc1ccccc1S(=O)(=O)N1CCNC(=O)C1 | > 40.5 µg/mL |
| Cc1nnc(N2C(=O)c3ccc(Br)cc3C2=O)s1 | > 48.6 µg/mL |
| O=C(CN1C(=O)COc2ccc(Cl)cc21)NCC1CCCO1 (stereo not given) | > 48.7 µg/mL |
| O=C(CNC(=O)c1ccc2c(c1)OCO2)NCCOc1ccc(Cl)cc1 | 13.7 µg/mL (≈ 36.4 µM) |
| CCOC(=O)N1CCc2c(sc(N)c2C#N)C1 | 31.2 µg/mL (≈ 124 µM) |
| Cc1ccc(C(=O)OCC(=O)NCCc2ccc(F)cc2)cc1S(=O)(=O)N1CCOCC1 | 57.2 µg/mL (≈ 123 µM) |
| N#CCCN1CCN(S(=O)(=O)c2ccc3c(c2)CCC3)CC1 | > 47.9 µg/mL |
| C=CCc1cccc(C=Nc2c[nH]c(=O)[nH]c2=O)c1O | 8.4 µg/mL (≈ 31 µM) |
| CC1CCN(C(=S)NC(=O)c2cccc([N+](=O)[O-])c2)CC1 | 34.2 µg/mL (≈ 111 µM) |
| N#Cc1ccc2c(c1)nc1ccccn12 | > 29 µg/mL |
| CC(=O)c1ccc(N2CCN(C(C)C(=O)Nc3ccc4c(c3)OCCO4)CC2)cc1 (stereo not given) | 5.1 µg/mL (≈ 12.5 µM) |
| Cc1cc(NC(=O)Nc2cc(Cl)sc2Cl)no1 | < 0.2 µg/mL |
| O=C(CSc1ncccn1)Nc1cccc2ccccc12 | > 44.3 µg/mL |
| Nc1ccc(Cl)c(S(=O)(=O)Nc2cccc(Cl)c2)c1 | 43.4 µg/mL (≈ 137 µM) |
| COc1ccc(N(C)C(=O)Nc2ccc3nsnc3c2)cc1 | 27.5 µg/mL (≈ 87.5 µM) |
| O=C(O)C(=O)O.c1ccc2c(c1)CCN(C1CCCCC1)C2 | 44 µg/mL |
| CC1CCN(C(=S)NC(=O)c2ccc(C(C)(C)C)cc2)CC1 | 3.1 µg/mL (≈ 9.73 µM) |
| CCCC(=O)NCc1ccncc1 | > 26.7 µg/mL |
| CCOc1ccc(C(=O)NCCc2cnc[nH]2)cc1 | > 38.9 µg/mL |
| Cn1cnc([N+](=O)[O-])c1Sc1nc2ccccc2[nH]1 | 5.1 µg/mL (≈ 18.5 µM) |
| CCC1(c2ccc(Cl)cc2)NC(=O)N(CC(=O)NC2(C#N)CCCCC2)C1=O (stereo not given) | > 60.4 µg/mL |

| Compound | solubility kinetic |
| --- | --- |
| CCN(CC)C(=O)CN1CCC(c2nc3cc(C)c(C)cc3[nH]2)CC1 | > 51.4 µg/mL |
| CCCC1Cc2nc(Cl)c(C#N)cc2CO1 (stereo not given) | > 35.5 µg/mL |
| CCCCCC(=O)Nc1c2c(nc3ccccc13)CCC2 | 18.7 µg/mL (≈ 66.2 µM) |
| Cc1noc(C)c1S(=O)(=O)N(C)Cc1ccccc1 | 38.5 µg/mL (≈ 137 µM) |
| CCOc1ccc(CC(=O)Nc2nccs2)cc1 | 7.7 µg/mL (≈ 29.4 µM) |
| Cc1ccc(S(=O)(=O)N2CCCC(C(=O)NCC3CCCO3)C2)cc1 (stereo not given) | > 55 µg/mL |
| O=C(c1ccccc1)C(O)C(c1ccccc1)N1CCOCC1 (stereo not given) | > 46.7 µg/mL |
| COc1ccc(C(=O)N(c2ccc(C)cc2)C2C=CS(=O)(=O)C2)cc1OC (stereo not given) | 55.3 µg/mL (≈ 143 µM) |
| Nc1cccc(P(=O)(c2ccccc2)c2ccccc2)c1 | > 44 µg/mL |
| COc1cccc(CNCCc2ccc3c(c2)OCO3)c1OC.O=C(O)C(=O)O | > 60.8 µg/mL |
| COc1ccc2c(ccc[n+]2CC(=O)c2ccccc2)c1.[Br-] | > 53.7 µg/mL |
| COc1cc(OC)c(C(=O)NC23CC4CC(CC(C4)C2)C3)cc1OC | 7.1 µg/mL (≈ 20.6 µM) |
| O=C(COC(=O)Cc1ccc(S(=O)(=O)N2CCOCC2)s1)Nc1ccccc1Cl | > 68.8 µg/mL |
| O=C(COC(=O)CC1CC2CCC1C2)NCc1ccccc1 (stereo not given) | > 45.2 µg/mL |
| Cc1cc2nc3c(nc2cc1C)C(O)=C3O | 27.6 µg/mL (≈ 129 µM) |
| CC(=O)Nc1ccc(OS(=O)(=O)c2ccccc2C)cc1 | 35.2 µg/mL (≈ 115 µM) |
| Cc1ccc(CC2C(=O)N(c3nc(C)cc(C)n3)C(=O)C2C)cc1 (stereo not given) | > 48.5 µg/mL |
| Cc1ccc(NC(=O)C2COc3ccccc3O2)cc1C (stereo not given) | 14.5 µg/mL (≈ 51.2 µM) |
| Cc1cc2nc(-c3ccc[nH]c3=O)n(Cc3ccccc3F)c2cc1C | 0.4 µg/mL (≈ 1.15 µM) |
| Cc1cccc(N2CCN(C(=O)c3ccc4nccnc4c3)CC2C)c1 (stereo not given) | > 52 µg/mL |
| Cc1ccc(S(=O)(=O)N2CCN(c3ccccc3)CC2)cc1 | < 0.3 µg/mL |
| CCOC(=O)c1c(C)nsc1NCc1ccccc1 | 8.5 µg/mL (≈ 30.8 µM) |
| O=C(C[n+]1ccccc1)N1CCCc2ccccc21.[Cl-] | > 43.3 µg/mL |
| O=C(CSc1ccc(Cl)cc1)NCc1ccncc1 | > 43.9 µg/mL |

| Compound | solubility kinetic |
| --- | --- |
| COc1cc(S(=O)(=O)N2CCN(C(=O)C3CC3)CC2)ccc1NC(C)=O | > 57.2 µg/mL |
| Cc1ccccc1OCC(=O)OCC(=O)NCc1ccccc1 | > 47 µg/mL |
| O=C1NCCN/C1=C\C(=O)c1ccc(Br)cc1 | 17.8 µg/mL (≈ 60.3 µM) |
| NC(=O)c1ccc(C2SCC(=O)N2CCc2ccccc2)cc1 (stereo not given) | > 49 µg/mL |
| C/C(N)=C(/C#N)C(=O)COC(=O)c1cc2c(s1)CCCC2 | 2.2 µg/mL (≈ 7.23 µM) |
| CCN(CCS(=O)(=O)c1ccc(Cl)cc1)C(=O)Nc1ccc(Cl)cc1 | 43.2 µg/mL (≈ 108 µM) |
| N#Cc1c(Nc2ccccc2C(F)(F)F)s[nH]c1=O | > 42.8 µg/mL |
| CCOP(=O)(OCC)C(NC(=O)CC(C)C)C(Cl)(Cl)Cl (stereo not given) | > 55.3 µg/mL |
| Cc1nnc(SCCCCSc2nnc(C)c(=O)[nH]2)[nH]c1=O | > 51.1 µg/mL |
| O=C(Nc1cccc(Cl)c1)Nc1cnccn1 | 1.3 µg/mL (≈ 5.23 µM) |
| CC1CCCC(C)N1C(=O)COC(=O)c1ccc(S(=O)(=O)N(C)c2ccccc2)cc1 (stereo not given) | 6.9 µg/mL (≈ 15.5 µM) |
| O=C(O)CC1(CC(=O)N2CCC(C(=O)O)CC2)CCCC1 | 40.6 µg/mL (≈ 137 µM) |
| O=C(NNC(=O)c1cccs1)c1ccc(Cl)nc1 | > 42.3 µg/mL |
| COc1cc(C)c(S(=O)(=O)NOCc2ccccc2)c(C)c1C | 5.5 µg/mL (≈ 16.4 µM) |
| CC(=O)N1CCN(c2ccc(NC(=O)c3ccc(F)cc3)cc2)CC1 | 10.6 µg/mL (≈ 31 µM) |
| CC(C)N(Cc1ccccc1)C(=O)c1ccc2c(c1)OCO2 | 42.8 µg/mL (≈ 144 µM) |
| CC(=O)c1ccccc1NS(=O)(=O)c1ccc2c(c1)CC(=O)N2 | 29.9 µg/mL (≈ 90.5 µM) |
| CCOC(=O)c1c(O)c(O)c(C(=O)OCC)n1-c1ccccc1 | > 47.9 µg/mL |
| COc1cc2[nH]c(=S)n(Cc3ccc(C)cc3)c(=O)c2cc1OC | < 0.4 µg/mL |
| Cc1cccc(NC(=O)Cn2cc(C(=O)C3CC3)c3ccccc32)c1 | < 0.4 µg/mL |
| CCOC(=O)C1CCN(C(=O)Nc2cc(Cl)cc(Cl)c2)CC1 | 20.4 µg/mL (≈ 59.1 µM) |
| COc1cc(C#N)c(NC(=O)CN2CCC(C(N)=O)CC2)cc1OC | > 52 µg/mL |
| Cc1cccc(NC(=O)CCN2CC(C)CC(C)C2)c1.Cl (stereo not given) | > 46.6 µg/mL |
| Cc1ccc(N2CN(CCc3ccccc3)CNC2=S)cc1 | 6.5 µg/mL (≈ 20.9 µM) |
